Data set [1] addresses T1, HCV polymerase (NS5B570n-Con1) (Hepatitis C virus genotype 1b, UniProt Q9WMX2).
T1 construct: contains a 21 amino acid deletion at the C-terminus relative to the full-length HCV polymerase; 6-histidine (N); made in house; host or cells: E. coli BL21(DE) pLysS, plasmid pET17b
As to the kind of experiment: HCV NS5B RNA polymerase activity assay. In kind it is biochemical, HCV Con1 strain. The procedure: The enzymatic activity of HCV polymerase (NS5B570n-Con1) was measured as the incorporation of radiolabeled nucleotide monophosphates into acid insoluble RNA products. Unincorporated radiolabeled substrate was removed by filtration and scintillant was added to the washed and dried filter plate containing radiolabeled RNA product. The amount of RNA product generated by NS5B570-Con1 at the end of the reaction was directly proportional to the amount of light emitted by the scintillant.
The N-terminal 6-histidine tagged HCV polymerase, derived from HCV Con1 strain, genotype 1b (NS5B570n-Con1) contains a 21 amino acid deletion at the C-terminus relative to the full-length HCV polymerase and was purified from E. coli strain BL21(DE) pLysS. The construct, containing the coding sequence of HCV NS5B Con1 (GenBank accession number AJ242654) was inserted into the plasmid construct pET17b, downstream of a T7 promoter expression cassette and transformed into E. coli. A single colony was grown overnight as a starter culture and later used inoculate 10 L of LB media supplemented with 100 μg/mL ampicillin at 37° C. Protein expression was induced by the addition of 0.25 mM isopropyl-β-D-thiogalactopyranoside (IPTG) when optical density at […] of the culture was between 0.6 and 0.8 and cells were harvested after 16 to 18 h at 30° C. NS5B570n-Con1 was purified to homogeneity using a three-step protocol including subsequent column chromatography on Ni-NTA, SP-Sepharose HP and Superdex 75 resins.
Each 50 μl enzymatic reaction contained 20 nM RNA template derived from the complementary sequence of the Internal Ribosome Entry Site (cIRES), 20 nM NS5B570n-Con1 enzyme, 0.5 μCi of tritiated UTP (Perkin Elmer catalog no. TRK-412; specific activity: 30 to 60 Ci/mmol; stock solution concentration from 7.5×10^-5 M to 20.6×10^-6 M), 1 μM each ATP, CTP, and GTP, 40 mM Tris-HCl pH 8.0, 40 mM NaCl, 4 mM DTT (dithiothreitol), 4 mM MgCl2, and 5 μl of compound serial diluted in DMSO. Reaction mixtures were assembled in 96-well filter plates (cat #MADVN0B, Millipore Co.) and incubated for 2 h at 30° C. Reactions were stopped by addition of 10% final (v/v) trichloroacetic acid and incubated for 40 min at 4° C. Reactions were filtered, washed with 8 reaction volumes of 10% (v/v) trichloroacetic acetic acid, 4 reaction volumes of 70% (v/v) ethanol, air dried, and 25 μl of scintillant (Microscint 20, Perkin-Elmer) was added to each reaction well.
The amount of light emitted from the scintillant was converted to counts per minute (CPM) on a Topcount® plate reader (Perkin-Elmer, Energy Range: Low, Efficiency Mode: Normal, Count Time: 1 min, Background Subtract: none, Cross talk reduction: Off).
Data was analyzed in Excel® (Microsoft®) and ActivityBase® (Idbs®). The reaction in the absence of enzyme was used to determine the background signal, which was subtracted from the enzymatic reactions. Positive control reactions were performed in the absence of compound, from which the background corrected activity was set as 100% polymerase activity. All data was expressed as a percentage of the positive control. The compound concentration at which the enzyme-catalyzed rate of RNA synthesis was reduced by 50% (IC50) was calculated by fitting
[formula] equation (i) to the data. where “Y” corresponds to the relative enzyme activity (in %), “% Min” is the residual relative activity at saturating compound concentration, “% Max” is the relative maximum enzymatic activity, “X” corresponds to the compound concentration, and “S” is the Hill coefficient (or slope).

What is called melting point is the temperature of the solid-liquid transition. Broadly, the IC50 is the concentration at which inhibition is half-maximal.

Turning to `COc1cc(CN(C(C)C)S(C)(=O)=O)c(-c2ccc[nH]c2=O)cc1C(C)(C)C` [Compound I-28], the melting point was in the range of 285 to 286 °C. Also, the midpoint of inhibition in data set [1], the IC50, lay at 33 nM.

Compound `COc1cc(CN2C(=O)CCC2=O)c(-c2ccc[nH]c2=O)cc1C(C)(C)C` [Compound I-29] displayed a melting point of 112.2 to 124.9 °C. In addition, the IC50 in data set [1] was found to be 68 nM.

Regarding `COc1cc(CN(CCOC(C)=O)S(C)(=O)=O)c(-c2ccc[nH]c2=O)cc1C(C)(C)C` [Compound I-30, 2-{[4-tert-Butyl-5-methoxy-2-(2-oxo-1,2-dihydro-pyridin-3-yl)-benzyl]-methanesulfonyl-amino}-ethyl acetate], the melting point is 207 to 208 °C. Further, in data set [1], half-maximal inhibition (IC50) was put at 35 nM.

With `COc1cc(CN(CC2CCNC2)S(C)(=O)=O)c(-c2ccc[nH]c2=O)cc1C(C)(C)C` (stereo not drawn) [Compound I-31, N-[4-tert-Butyl-5-methoxy-2-(2-oxo-1,2-dihydro-pyridin-3-yl)-benzyl]-N-pyrrolidin-3-ylmethyl-methanesulfonamide], the melting point was in the range of 158 to 160 °C. The compound further registered a half-maximal inhibitory concentration (IC50) in data set [1] of 97 nM.

In turn, `COc1cc(CN2C(=O)c3ccccc3C2=O)c(-c2ccc[nH]c2=O)cc1C(C)(C)C` [Compound I-33, 2-[4-tert-Butyl-5-methoxy-2-(2-oxo-1,2-dihydro-pyridin-3-yl)-benzyl]-isoindole-1,3-dione] showed a melting point of 277 to 280 °C. The same compound gave a concentration for half-maximal inhibition (IC50) in data set [1] of 35 nM.

Compound `COc1cc(CN(CCO)S(C)(=O)=O)c(-c2ccc[nH]c2=O)cc1C(C)(C)C` [Compound I-35, N-[4-tert-butyl-5-methoxy-2-(2-oxo-1,2-dihydro-pyridin-3-yl)-benzyl]-N-(2-hydroxy-ethyl)-methanesulfonamide] gave a melting point of 234.7 to 236 °C. Also, inhibition in data set [1] was half-maximal at 26 nM (IC50).

In turn, `COc1cc(CNS(C)(=O)=O)c(-c2ccc(C)[nH]c2=O)cc1C(C)(C)C` [Compound I-37, N-[4-tert-Butyl-5-methoxy-2-(6-methyl-2-oxo-1,2-dihydro-pyridin-3-yl)-benzyl]-methanesulfonamide] yielded a melting point of 120 to 125 °C. In data set [1], this compound returned an IC50 of 146 nM.

For the compound `CCC1(CC)C(=O)C=CN(Cc2cc(OC)c(C(C)(C)C)cc2-c2ccc[nH]c2=O)C1=O` [Compound I-39], the melting point lay in the range of 282 to 284 °C. In data set [1], this compound returned an IC50 of 159 nM.

Turning to `COc1cc(C(=O)N2CCOCC2)c(-c2ccc[nH]c2=O)cc1C(C)(C)C` [Compound I-40], the melting point was 208 to 210 °C. In addition, in data set [1], the IC50 stood at 533 nM.

`COc1cc(C(=O)N(C)C)c(-c2ccc[nH]c2=O)cc1C(C)(C)C` [Compound I-41]: the melting point lay within 208 to 210 °C. Further, half-maximal inhibition in data set [1] (IC50) was put at 1680 nM.

`COc1cc(CNC(=O)c2ccc(N)cc2)c(-c2ccc[nH]c2=O)cc1C(C)(C)C` [Compound I-42, 4-Amino-N-[4-tert-butyl-5-methoxy-2-(2-oxo-1,2-dihydro-pyridin-3-yl)-benzyl]-benzamide] came in with a melting point of 165 to 167 °C. Further, inhibition in data set [1] was half-maximal at 36 nM (IC50).

The compound `COc1cc(CNC(=O)c2ccc(NS(C)(=O)=O)cc2)c(-c2ccc[nH]c2=O)cc1C(C)(C)C` [Compound I-43, N-[4-tert-butyl-5-methoxy-2-(2-oxo-1,2-dihydro-pyridin-3-yl)-benzyl]-4-methanesulfonylamino-benzamide] yielded a melting point of 175 to 180 °C. For the same compound, the midpoint of inhibition in data set [1], the IC50, lay at 50 nM.

Turning to `COc1cc(C(=O)N2CCN(C(C)=O)CC2)c(-c2ccc[nH]c2=O)cc1C(C)(C)C` [Compound I-46], the melting point was in the range of 206 to 208 °C. The compound also showed an IC50 in data set [1] of 615 nM.

`COCCN(C)C(=O)c1cc(OC)c(C(C)(C)C)cc1-c1ccc[nH]c1=O` [Compound I-47] registered a melting point of 160 to 162 °C. The same compound gave a concentration for half-maximal inhibition (IC50) in data set [1] of 1510 nM.

`COc1cc(CN(CC2CCN(C(C)=O)C2)S(C)(=O)=O)c(-c2ccc[nH]c2=O)cc1C(C)(C)C` (stereo not drawn) [Compound I-48, N-(1-acetyl-pyrrolidin-3-ylmethyl)-N-[4-tert-butyl-5-methoxy-2-(2-oxo-1,2-dihydro-pyridin-3-yl)-benzyl]-methanesulfonamide] had a melting point of 196 to 198 °C. For the same compound, the IC50 in data set [1] came out at 84 nM.

Compound `COc1cc(C(=O)N2CCS(=O)(=O)CC2)c(-c2ccc[nH]c2=O)cc1C(C)(C)C` [Compound I-51] registered a melting point of 252 to 254 °C. This compound gave an IC50 in data set [1] of 552 nM.

The compound `COc1cc(C(C)NS(C)(=O)=O)c(-c2ccc[nH]c2=O)cc1C(C)(C)C` (stereo not drawn) [Compound I-52, N-{1-[4-tert-butyl-5-methoxy-2-(2-oxo-1,2-dihydro-pyridin-3-yl)-phenyl]-ethyl}-methanesulfonamide] came in with a melting point of 284 to 286 °C. In data set [1], the IC50 was 654 nM.

The compound `COc1cc(C(C)N(C)S(C)(=O)=O)c(-c2ccc[nH]c2=O)cc1C(C)(C)C` (stereo not drawn) [Compound I-53, N-{1-[4-tert-Butyl-5-methoxy-2-(2-oxo-1,2-dihydro-pyridin-3-yl)-phenyl]-ethyl}-N-methyl-methanesulfonamide] showed a melting point of 205 to 207 °C. For the same compound, the IC50 in data set [1] came to 187 nM.

As to `CCOC(=O)c1cc(OC)c(C(C)(C)C)cc1-c1ccc[nH]c1=O` [Compound I-54, 4-tert-Butyl-5-methoxy-2-(2-oxo-1,2-dihydro-pyridin-3-yl)-benzoic acid ethyl ester], the melting point was in the range of 214 to 215 °C. For the same compound, in data set [1], 39 nM corresponded to half-maximal inhibition (IC50).

The compound `COc1cc(C(=O)N2CCC(C#N)CC2)c(-c2ccc[nH]c2=O)cc1C(C)(C)C` [Compound I-56, 1-[4-tert-Butyl-5-methoxy-2-(2-oxo-1,2-dihydro-pyridin-3-yl)-benzoyl]-piperidine-4-carbonitrite] registered a melting point of 213 to 215 °C. Moreover, the IC50 in data set [1] amounted to 432 nM.

In turn, `COc1cc(CN(C2CCNCC2)S(C)(=O)=O)c(-c2ccc[nH]c2=O)cc1C(C)(C)C` [Compound I-57] yielded a melting point of 205 to 208 °C. In data set [1], it took 57 nM to reach half-maximal inhibition (IC50).

`COc1cc(C(=O)N(C)Cc2ccncc2)c(-c2ccc[nH]c2=O)cc1C(C)(C)C` [Compound I-58] registered a melting point of 199 to 201 °C. For the same compound, half-maximal inhibition in data set [1] (IC50) was put at 1140 nM.

As for `COc1cc(CN2CCNS2(=O)=O)c(-c2ccc[nH]c2=O)cc1C(C)(C)C` [Compound I-60, 3-[5-tert-Butyl-2-(1,1-dioxo-1λ^6-[1,2,5]thiadiazolidin-2-ylmethyl)-4-methoxy-phenyl]-1H-pyridin-2-on], the melting point is 230 to 231 °C. This compound also displayed an IC50 in data set [1] of 23 nM.

As to `COc1cc(CN2CCN(C(=O)OC(C)(C)C)S2(=O)=O)c(-c2ccc[nH]c2=O)cc1C(C)(C)C` [Compound I-61], the melting point was 125 to 127 °C. In addition, the IC50 in data set [1] stood at 319 nM.

`COc1cc(C(=O)N2CCC(F)(F)CC2)c(-c2ccc[nH]c2=O)cc1C(C)(C)C` [Compound I-62] registered a melting point of 223 to 224 °C. In data set [1], this compound returned an IC50 of 955 nM.

Compound `COc1cc(CN2CCN(C)S2(=O)=O)c(-c2ccc[nH]c2=O)cc1C(C)(C)C` [Compound I-64, 3-[5-tert-Butyl-4-methoxy-2-(5-methyl-1,1-dioxo-1λ^6-[1,2,5]thiadiazolidin-2-ylmethyl)-phenyl]-1H-pyridin-2-one] registered a melting point of 253 to 255 °C. Moreover, the half-maximal inhibitory concentration (IC50) in data set [1] came to 60 nM.

In turn, `COc1cc(CN(C)C(=O)c2cccc(NS(C)(=O)=O)c2)c(-c2ccc[nH]c2=O)cc1C(C)(C)C` [Compound I-65, N-[4-tert-Butyl-5-methoxy-2-(2-oxo-1,2-dihydro-pyridin-3-yl)-benzyl]-3-methanesulfonylamino-N-methyl-benzamide] displayed a melting point of 170 to 172 °C. In data set [1], this compound registered an IC50 of 13 nM.

(Values after patent US8232271B2 (priority 2008, dated 2012).)
